From ChEMBL document CHEMBL3808370, “Nortriketones: Antimicrobial Trimethylated Acylphloroglucinols from Ma̅nuka (Leptospermum scoparium)” (J Nat Prod, 2016)
In brackets after ≈: the same amount, converted by molar mass. Activity calls are given as the source filed them. No cut-off for these calls is given here.

Columns and labels:
[1] = biological target: T1, 4-hydroxyphenylpyruvate dioxygenase (Arabidopsis thaliana) (UniProt P93836); experiment: Inhibition of recombinant Arabidopsis thaliana HPPD overexpressed in Escherichia coli JM105 cells at 100 uM using 4-HPP as substrate preincubated for 15 mins followed by substrate addition and subsequent incubation for 15 mins by HPLC analysis
T1 sequence (whole entry): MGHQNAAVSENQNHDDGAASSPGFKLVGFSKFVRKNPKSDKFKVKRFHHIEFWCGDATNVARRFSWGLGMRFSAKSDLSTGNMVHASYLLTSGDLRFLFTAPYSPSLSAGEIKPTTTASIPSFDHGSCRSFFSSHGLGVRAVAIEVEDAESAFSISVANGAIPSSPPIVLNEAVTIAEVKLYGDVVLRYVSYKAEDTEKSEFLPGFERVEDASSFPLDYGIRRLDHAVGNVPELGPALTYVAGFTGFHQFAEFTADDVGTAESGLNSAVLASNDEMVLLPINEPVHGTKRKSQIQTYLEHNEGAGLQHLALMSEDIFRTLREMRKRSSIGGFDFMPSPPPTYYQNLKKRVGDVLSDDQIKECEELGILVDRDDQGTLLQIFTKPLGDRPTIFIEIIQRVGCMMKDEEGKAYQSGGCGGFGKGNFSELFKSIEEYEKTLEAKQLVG

[2] = tested on: Escherichia coli; experiment: Antibacterial activity against Escherichia coli; assay type: functional
[3] = biological target: T2, 4-hydroxyphenylpyruvate dioxygenase (Arabidopsis thaliana, UniProt P93836); experiment: Inhibition of recombinant Arabidopsis thaliana HPPD overexpressed in Escherichia coli JM105 cells using 4-HPP as substrate preincubated for 15 mins followed by substrate addition and subsequent incubation for 15 mins by HPLC analysis; details: read-out: I50
T2 sequence (P93836 whole entry): T1 sequence (whole entry)

[4] = tested on: Staphylococcus aureus; experiment: Antibacterial activity against methicillin-resistant Staphylococcus aureus by two-fold broth dilution method; assay type: functional
[5] = tested on: Enterococcus faecalis; experiment: Antibacterial activity against vancomycin-resistant Enterococcus faecalis incubated for 18 to 24 hrs by broth microdilution method; assay type: functional

SMILES	inhibition [1]	MIC [2]	IC50 [3]	MIC [4]	MIC [5]
CC1=C(O)C(C)(C)C(=O)C(C(=O)CC(C)C)=C1O	inactive				
CC1(C)C(=O)C(C(=O)CCc2ccccc2)=C(O)C(C)(C)C1=O		> 512 µg/mL	750 nM	6 µg/mL (≈ 19.1 µM)	6 µg/mL (≈ 19.1 µM)
CC1=C(O)C(C)(C)C(=O)C(C(=O)CCc2ccccc2)=C1O	inactive	> 512 µg/mL		64 µg/mL (≈ 213 µM)	64 µg/mL (≈ 213 µM)
CC1=C(O)C(C)(C)C(=O)C(C(=O)C(C)C)=C1O	inactive				
